Patent publication US20240174679A1, “HETEROAROYL AMIDES AS LRRK2 INHIBITORS, PHARMACEUTICAL COMPOSITIONS, AND USES THEREOF” (MERCK SHARP & DOHME LLC, priority 2021, published 2024)

target: GST tagged truncated human mutant G2019S LRRK2 (Homo sapiens (Human), UniProt Q5S007, G2019S); assay: LRRK2 Km ATP LanthaScreen Assay; type: biochemical; details: 134 μM ATP (Km ATP), LRRKtide substrate, negative log of mean IC50 (molar)
Summary of the method: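 Truncated GST-tagged G2019S LRRK2 (1.25 nM enzyme solution) was preincubated with compound for 15 min at rt, then reacted for 90 min with fluorescein-LRRKtide and 134 μM ATP (Km) in Tris pH 8.5/MgCl2 buffer. After an EDTA stop, TR-FRET used a Tb anti-pERM antibody (520/495 nm ratio). IC50 came from a 4-parameter fit and is reported as pIC50, mean of several runs.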

Chain of GST tagged truncated human mutant G2019S LRRK2 (Q5S007 970-2527 G2019S): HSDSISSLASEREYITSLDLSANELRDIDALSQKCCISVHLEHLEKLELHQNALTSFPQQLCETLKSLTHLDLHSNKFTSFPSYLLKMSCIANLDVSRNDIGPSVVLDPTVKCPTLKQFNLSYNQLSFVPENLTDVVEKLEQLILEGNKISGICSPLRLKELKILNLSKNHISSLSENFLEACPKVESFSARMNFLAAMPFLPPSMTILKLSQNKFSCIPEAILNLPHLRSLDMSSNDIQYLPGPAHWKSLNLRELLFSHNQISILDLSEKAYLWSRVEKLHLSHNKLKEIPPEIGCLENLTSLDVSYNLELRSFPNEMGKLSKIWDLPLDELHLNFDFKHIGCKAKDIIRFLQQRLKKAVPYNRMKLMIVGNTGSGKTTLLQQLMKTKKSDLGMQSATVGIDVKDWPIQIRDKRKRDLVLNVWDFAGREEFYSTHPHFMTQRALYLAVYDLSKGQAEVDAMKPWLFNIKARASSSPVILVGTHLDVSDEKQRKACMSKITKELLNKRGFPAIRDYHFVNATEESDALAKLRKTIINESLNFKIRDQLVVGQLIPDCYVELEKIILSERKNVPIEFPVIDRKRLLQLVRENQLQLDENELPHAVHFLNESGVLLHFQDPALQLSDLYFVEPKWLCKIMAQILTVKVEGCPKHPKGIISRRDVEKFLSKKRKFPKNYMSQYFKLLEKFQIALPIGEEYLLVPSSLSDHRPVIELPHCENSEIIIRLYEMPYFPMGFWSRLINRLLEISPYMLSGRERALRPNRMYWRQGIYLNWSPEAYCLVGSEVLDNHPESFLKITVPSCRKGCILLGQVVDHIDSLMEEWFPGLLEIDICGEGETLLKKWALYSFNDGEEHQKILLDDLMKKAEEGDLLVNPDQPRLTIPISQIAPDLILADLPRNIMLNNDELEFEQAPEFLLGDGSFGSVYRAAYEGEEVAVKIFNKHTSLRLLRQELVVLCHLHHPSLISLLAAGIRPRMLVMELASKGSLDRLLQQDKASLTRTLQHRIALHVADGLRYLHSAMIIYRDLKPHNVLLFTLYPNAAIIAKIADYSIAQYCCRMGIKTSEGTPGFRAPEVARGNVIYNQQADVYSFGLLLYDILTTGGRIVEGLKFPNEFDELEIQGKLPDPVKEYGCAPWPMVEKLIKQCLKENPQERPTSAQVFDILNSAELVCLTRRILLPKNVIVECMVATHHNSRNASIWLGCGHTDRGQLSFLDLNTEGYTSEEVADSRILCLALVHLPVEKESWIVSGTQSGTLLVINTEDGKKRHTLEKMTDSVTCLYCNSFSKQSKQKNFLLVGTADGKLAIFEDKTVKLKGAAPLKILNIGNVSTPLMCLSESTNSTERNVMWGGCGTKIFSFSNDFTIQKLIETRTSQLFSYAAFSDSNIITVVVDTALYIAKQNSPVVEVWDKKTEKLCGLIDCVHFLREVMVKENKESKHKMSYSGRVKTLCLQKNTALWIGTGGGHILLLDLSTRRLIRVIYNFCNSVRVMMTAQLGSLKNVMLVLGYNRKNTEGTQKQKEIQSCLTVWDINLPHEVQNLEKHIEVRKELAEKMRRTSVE

Row | Structure (SMILES) | LRRK2 pIC50
1 | CN(C)CCCn1cc(NC(=O)c2csc(-c3cn[nH]c3)n2)cn1 [Example 7-6, N-{1-[3-(dimethylamino)propyl]-1H-pyrazol-4-yl}-2-(1H-pyrazol-4-yl)-1,3-thiazole-4-carboxamide] | 6.43
2 | O=C(Nc1cnn(CC2CCC2)c1)c1cccc(-c2csc3ccccc23)n1 [Example 9-31, 6-(1-benzothiophen-3-yl)-N-[1-(cyclobutylmethyl)-1H-pyrazol-4-yl]pyridine-2-carboxamide] | 5.18
3 | O=C(Nc1cnn(CC2CCC(F)(F)CC2)c1)c1csc(-c2cn[nH]c2)n1 [Example 7-8, N-{1-[(4,4-difluorocyclohexyl)methyl]-1H-pyrazol-4-yl}-2-(1H-pyrazol-4-yl)-1,3-thiazole-4-carboxamide] | 7.35
4 | CC(C)(C)n1cc(NC(=O)c2csc(-c3cn[nH]c3)n2)cn1 [Example 1-17, N-(1-tert-butyl-1H-pyrazol-4-yl)-2-(1H-pyrazol-4-yl)-1,3-thiazole-4-carboxamide] | 7.22
5 | Cc1nn(C2CCC2)cc1NC(=O)c1csc(-c2cn[nH]c2)n1 [Example 1-3, N-(1-Cyclobutyl-3-methyl-1H-pyrazol-4-yl)-2-(1H-pyrazol-4-yl)thiazole-4-carboxamide] | 7.83
6 | CC(C)n1cc(NC(=O)c2csc(-c3cn[nH]c3)n2)cn1 [Example 1-20, N-[1-(1-methylethyl)-1H-pyrazol-4-yl]-2-(1H-pyrazol-4-yl)-1,3-thiazole-4-carboxamide] | 7.68
7 | Cc1nn(C(C2CC2)C2CC2)cc1NC(=O)c1csc(-c2cn[nH]c2)n1 [Example 1-23, N-[1-(dicyclopropyl-methyl)-3-methyl-1H-pyrazol-4-yl]-2-(1H-pyrazol-4-yl)-1,3-thiazole-4-carboxamide] | 6.59
8 | Cn1cc(-c2nc(C(=O)Nc3cnn(CC4CCC4)c3)cs2)cn1 [Example 12-1, N-(1-(Cyclobutylmethyl)-1H-pyrazol-4-yl)-2-(1-methyl-1H-pyrazol-4-yl)thiazole-4-carboxamide] | 7.74
9 | O=C(Nc1cnn(CC2CCC2)c1)c1cccc(-c2ccc(F)cc2F)n1 [Example 9-11, N-[1-(cyclobutylmethyl)-1H-pyrazol-4-yl]-6-(2,4-difluorophenyl) pyridine-2-carboxamide] | 5.63
10 | Cn1cc(NC(=O)c2csc(-c3cn[nH]c3)n2)cn1 [Example 4-15, N-(1-methyl-1H-pyrazol-4-yl)-2-(1H-pyrazol-4-yl)thiazole-4-carboxamide] | 7.28
11 | Cn1cc(NC(=O)c2csc(-c3cn[nH]c3)n2)c(C2CC2)n1 [Example 1-42, N-(3-cyclopropyl-1-methyl-1H-pyrazol-4-yl)-2-(1H-pyrazol-4-yl)-1,3-thiazole-4-carboxamide] | 7.74
12 | O=C(Nc1cnn(C2CCC2)c1)c1csc(-c2cccnc2)n1 [Example 9-39, N-(1-cyclobutyl-1H-pyrazol-4-yl)-2-(pyridin-3-yl)thiazole-4-carboxamide] | 7.06
13 | Cc1n[nH]c(C)c1-c1cccc(C(=O)Nc2cnn(CC3CCC3)c2)n1 [Example 9-26, N-[1-(cyclobutylmethyl)-1H-pyrazol-4-yl]-6-(3,5-dimethyl-1H-pyrazol-4-yl)pyridine-2-carboxamide] | 6.09
14 | CC(C)n1cc(NC(=O)c2csc(-c3cn[nH]c3)n2)c(C(F)F)n1 [Example 7-18, N-[3-(difluoromethyl)-1-(1-methylethyl)-1H-pyrazol-4-yl]-2-(1H-pyrazol-4-yl)-1,3-thiazole-4-carboxamide] | 7.72
15 | O=C(Nc1cnn(C2CCC2)c1)c1csc(Nc2ccccc2)n1 [Example 4-14, N-(1-cyclobutyl-1H-pyrazol-4-yl)-2-(phenylamino)-1,3-thiazole-4-carboxamide] | 6.12
16 | O=C(Nc1cnn(C2CC2)c1)c1csc(-c2ccn[nH]2)n1 [Example 9-40, N-(1-cyclopropyl-1H-pyrazol-4-yl)-2-(1H-pyrazol-5-yl)thiazole-4-carboxamide] | 7.06
